# Source: patent US8754242B2, “Herbicides” (Syngenta Crop Protection LLC, priority 2007, dated 2014)
# Legend:
# Format in all cases: in vivo
# [1] = system: Alopecurus myosuroides (ALOMY); experiment: Test Example 1 post-emergence herbicidal activity; conditions: 360 h, rate 125 g/ha, evaluated 15 days later, read-out: Post-emergence activity ALOMY (100=total damage to plant; 0=no damage to plant)
# Procedure, shortened: (§1)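 Greenhouse pot test; spray application pre-emergence (1 d after sowing) or post-emergence (10 d growth). Rating 0–100% damage; pre read at 20 d, post at 15 d.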
# Setaria faberi (SETFA) [2] = experiment: Test Example 1 post-emergence herbicidal activity; conditions: 360 h, rate 125 g/ha, evaluated 15 days later, read-out: Post-emergence activity SETFA (100=total damage to plant; 0=no damage to plant)
# Procedure, shortened: as §1
# [3] = system: Echinochloa crus-galli (ECHCG); experiment: Test Example 1 post-emergence herbicidal activity; conditions: 360 h, rate 125 g/ha, evaluated 15 days later, read-out: Post-emergence activity ECHCG (100=total damage to plant; 0=no damage to plant)
# Procedure, shortened: as §1
# Lolium perenne (LOLPE) [4] = experiment: Test Example 1 post-emergence herbicidal activity; conditions: 360 h, rate 125 g/ha, evaluated 15 days later, read-out: Post-emergence activity LOLPE (100=total damage to plant; 0=no damage to plant)
# Procedure, shortened: as §1
# Avena fatua (AVEFA) [5] = experiment: Test Example 1 post-emergence herbicidal activity; conditions: 360 h, rate 125 g/ha, evaluated 15 days later, read-out: Post-emergence activity AVEFA (100=total damage to plant; 0=no damage to plant)
# Procedure, shortened: as §1
# [6] = system: Digitaria sanguinalis (DIGSA); experiment: Test Example 1 post-emergence herbicidal activity; conditions: 360 h, rate 125 g/ha, evaluated 15 days later, read-out: Post-emergence activity DIGSA (100=total damage to plant; 0=no damage to plant)
# Procedure, shortened: as §1
# [7] = system: Alopecurus myosuroides (ALOMY); experiment: Test Example 1 pre-emergence herbicidal activity; conditions: Alopecurus myosuroides, 480 h, rate 250 g/ha, evaluated 20 days later, read-out: Pre-emergence activity ALOMY (100=total damage to plant; 0=no damage to plant)
# Procedure, shortened: as §1
# Setaria faberi (SETFA) [8] = experiment: Test Example 1 pre-emergence herbicidal activity; conditions: Setaria faberi, 480 h, rate 250 g/ha, evaluated 20 days later, read-out: Pre-emergence activity SETFA (100=total damage to plant; 0=no damage to plant)
# Procedure, shortened: as §1
# [9] = system: Echinochloa crus-galli (ECHCG); experiment: Test Example 1 pre-emergence herbicidal activity; conditions: Echinochloa crus-galli, 480 h, rate 250 g/ha, evaluated 20 days later, read-out: Pre-emergence activity ECHCG (100=total damage to plant; 0=no damage to plant)
# Procedure, shortened: as §1
# Lolium perenne (LOLPE) [10] = experiment: Test Example 1 pre-emergence herbicidal activity; conditions: Lolium perenne, 480 h, rate 250 g/ha, evaluated 20 days later, read-out: Pre-emergence activity LOLPE (100=total damage to plant; 0=no damage to plant)
# Procedure, shortened: as §1
# Avena fatua (AVEFA) [11] = experiment: Test Example 1 pre-emergence herbicidal activity; conditions: Avena fatua, 480 h, rate 250 g/ha, evaluated 20 days later, read-out: Pre-emergence activity AVEFA (100=total damage to plant; 0=no damage to plant)
# Procedure, shortened: as §1
# [12] = system: Digitaria sanguinalis (DIGSA); experiment: Test Example 1 pre-emergence herbicidal activity; conditions: Digitaria sanguinalis, 480 h, rate 250 g/ha, evaluated 20 days later, read-out: Pre-emergence activity DIGSA (100=total damage to plant; 0=no damage to plant)
# Procedure, shortened: as §1
Compound,pest or weed control at 125 g/ha [1] [%],pest or weed control at 125 g/ha (Setaria faberi (SETFA) [2]) [%],pest or weed control at 125 g/ha [3] [%],pest or weed control at 125 g/ha (Lolium perenne (LOLPE) [4]) [%],pest or weed control at 125 g/ha (Avena fatua (AVEFA) [5]) [%],pest or weed control at 125 g/ha [6] [%],pest or weed control at 250 g/ha [7] [%],pest or weed control at 250 g/ha (Setaria faberi (SETFA) [8]) [%],pest or weed control at 250 g/ha [9] [%],pest or weed control at 250 g/ha (Lolium perenne (LOLPE) [10]) [%],pest or weed control at 250 g/ha (Avena fatua (AVEFA) [11]) [%],pest or weed control at 250 g/ha [12] [%]
C#CC1=C[C@@H]2O[C@H]1[C@H]1C(O)=C(c3c(CC)cc(C)cc3CC)C(=O)[C@H]12 [Example T12],70,70,70,10,50,70,10,40,0,40,10,40
CCc1cc(C)cc(CC)c1C1=C(O)[C@H]2[C@@H](C1=O)[C@@H]1CC[C@@]2(CO)O1 [Example T14],80,100,100,80,80,90,90,100,90,100,90,70
CCC1=NOC2C1[C@@H]1O[C@H]2[C@H]2C(O)=C(c3c(CC)cc(C)cc3CC)C(=O)[C@H]21 (stereo partly drawn) [Example T15],50,50,80,40,40,80,40,60,80,40,20,30
CCc1cc(C)cc(CC)c1C1=C(O)[C@H]2[C@@H](C1=O)[C@@H]1CC[C@@]2(COC)O1 [Example T17],100,100,100,90,100,100,100,100,100,100,90,100
CCOC[C@]12CC[C@H](O1)[C@@H]1C(=O)C(c3c(CC)cc(C)cc3CC)=C(O)[C@@H]12 [Example T18],100,100,100,80,100,100,100,100,100,100,100,100
CCOCOC[C@]12CC[C@H](O1)[C@@H]1C(=O)C(c3c(CC)cc(C)cc3CC)=C(O)[C@@H]12 [Example T19],100,100,100,90,100,90,100,100,100,100,90,90
CCCNC(=O)OC[C@]12CC[C@H](O1)[C@@H]1C(=O)C(c3c(CC)cc(C)cc3CC)=C(O)[C@@H]12 [Example T21],90,60,100,70,70,30,90,70,80,80,30,10
